Laboratory results: patent US8722644B2, “Mixture of hyaluronic acid for treating and preventing peptic ulcer and duodenal ulcer” (Holy Stone Healthcare Co., Ltd., priority 2010, dated 2014)

Tested on: rats that had Aspirin induced gastrointestinal ulcers
Test: Treatment effects of PU98 on rats that had Aspirin induced gastrointestinal ulcers
Assay type: in vivo
Conditions: 200 mg Aspirin intraperitoneal day 1 to day 3 after fasting; thirty rats; internal abdominal bleeding upon dissection
Source text: PU98 (composition of binary molecular weight of HA that are 70% HA with an average Mw of 2000 KDa and 30% HA with an average Mw of 1000 KDa in PBS solution, the final concentration is 0.5%; i.e. 0.5 g HA in 100 c.c. PBS solution).
Thirty eight-weeks-old SPF Sprague-Dawley male rats (BioLASCO Taiwan Co., Ltd.), were divided into 3 groups: study group (Aspirin/PU98), placebo group (Aspirin/PBS), control group (PBS), each group consisting of 10 rats with 2 rats housed per cage at the Animal Technology Institute Taiwan rodents room.
Before animal experimentation, rats were first fasted for 24 hours or more. From day one (D1) of experimentation to day three (D3), rats were given 1 ml of Aspirin (200 mg/ml) through intraperitoneal administration.
From day 4 to day 18, rats of the study group were given 1 ml of Aspirin (100 mg/ml) daily through intraperitoneal administration, they were also fed a 2 ml dosage of PU98 once every morning and afternoon.
From day 4 to day 18, rats of the placebo group were given 1 ml of Aspirin (100 mg/ml) daily through intraperitoneal administration, however they were fed a 2 ml dosage of PBS (placebo) once every morning and afternoon. […]
The present invention was analyzed by “student t test” to evaluate relationship between the study group, placebo group and control group.

`CC(=O)Oc1ccccc1C(=O)O` [Aspirin] was tested. Which “rats died on day 4 after Aspirin induction” value did it give?
Its value is 11.
